Source: ChEMBL document CHEMBL3046196, “Dimeric 2-(2-chlorophenyl)-quinazolin-4-ones as potential antimicrobial agents” (2012)
In brackets after ≈: the same amount, converted by molar mass.

Columns and labels:
Assay type in all cases: functional
Escherichia coli = test: Antimicrobial activity against Escherichia coli MTCC 443 after 24 and 48 hr by serial broth dilution method
Pseudomonas aeruginosa = test: Antimicrobial activity against Pseudomonas aeruginosa MTCC 1688 after 24 and 48 hr by serial broth dilution method
Aspergillus clavatus = test: Antimicrobial activity against Aspergillus clavatus MTCC 1323
Streptococcus pyogenes = test: Antimicrobial activity against Streptococcus pyogenes MTCC 442 after 24 and 48 hr by serial broth dilution method
Candida albicans = test: Antimicrobial activity against Candida albicans MTCC 227
Aspergillus niger = test: Antimicrobial activity against Aspergillus niger MTCC 282
Staphylococcus aureus = test: Antimicrobial activity against Staphylococcus aureus MTCC 96 after 24 and 48 hr by serial broth dilution method

Row | SMILES | MIC99 (Escherichia coli) [µg/mL] | MIC99 (Pseudomonas aeruginosa) [µg/mL] | MIC99 (Aspergillus clavatus) [µg/mL] | MIC99 (Streptococcus pyogenes) [µg/mL] | MIC99 (Candida albicans) [µg/mL] | MIC99 (Aspergillus niger) [µg/mL] | MIC99 (Staphylococcus aureus) [µg/mL]
1 | Cc1ccc(C)c(-n2c(-c3ccccc3Cl)nc3ccc(CCn4c(-c5ccccc5Cl)nc5ccccc5c4=O)cc3c2=O)c1 | 100 (≈ 155 µM) | 200 (≈ 311 µM) | 500 (≈ 777 µM) | 25 (≈ 38.8 µM) | 200 (≈ 311 µM) | 500 (≈ 777 µM) | 100 (≈ 155 µM)
2 | COc1ccc(-n2c(-c3ccccc3Cl)nc3ccc(CCn4c(-c5ccccc5Cl)nc5ccccc5c4=O)cc3c2=O)c([N+](=O)[O-])c1 | 100 (≈ 145 µM) | 500 (≈ 724 µM) | 500 (≈ 724 µM) | 100 (≈ 145 µM) | 100 (≈ 145 µM) | 500 (≈ 724 µM) | 100 (≈ 145 µM)
3 | Cc1ccc(-n2c(-c3ccccc3Cl)nc3ccc(CCn4c(-c5ccccc5Cl)nc5ccccc5c4=O)cc3c2=O)c([N+](=O)[O-])c1 | 200 (≈ 296 µM) | 500 (≈ 741 µM) | 100 (≈ 148 µM) | 25 (≈ 37.1 µM) | 500 (≈ 741 µM) | 1000 (≈ 1480 µM) | 100 (≈ 148 µM)
4 | O=c1c2ccccc2nc(-c2ccccc2Cl)n1CCc1ccc2nc(-c3ccccc3Cl)n(-c3ccccc3[N+](=O)[O-])c(=O)c2c1 | 100 (≈ 151 µM) | 200 (≈ 303 µM) | 1000 (≈ 1510 µM) | 12.5 (≈ 18.9 µM) | 100 (≈ 151 µM) | 100 (≈ 151 µM) | 200 (≈ 303 µM)
5 | O=c1c2ccccc2nc(-c2ccccc2Cl)n1CCc1ccc2nc(-c3ccccc3Cl)n(-c3cccc([N+](=O)[O-])c3)c(=O)c2c1 | 50 (≈ 75.7 µM) | 100 (≈ 151 µM) | 100 (≈ 151 µM) | 50 (≈ 75.7 µM) | 1000 (≈ 1510 µM) | 1000 (≈ 1510 µM) | 50 (≈ 75.7 µM)
6 | O=c1c2ccccc2nc(-c2ccccc2Cl)n1CCc1ccc2nc(-c3ccccc3Cl)n(-c3ccc([N+](=O)[O-])cc3)c(=O)c2c1 | 100 (≈ 151 µM) | 500 (≈ 757 µM) | 500 (≈ 757 µM) | 100 (≈ 151 µM) | 500 (≈ 757 µM) | 500 (≈ 757 µM) | 200 (≈ 303 µM)
7 | O=c1c2ccccc2nc(-c2ccccc2Cl)n1CCc1ccc2nc(-c3ccccc3Cl)n(-c3ccc(Cl)c(Cl)c3)c(=O)c2c1 | 200 (≈ 292 µM) | 100 (≈ 146 µM) | 100 (≈ 146 µM) | 50 (≈ 73.1 µM) | 100 (≈ 146 µM) | 500 (≈ 731 µM) | 50 (≈ 73.1 µM)
8 | O=c1c2ccccc2nc(-c2ccccc2Cl)n1CCc1ccc2nc(-c3ccccc3Cl)n(-c3c(Cl)cc([N+](=O)[O-])cc3Cl)c(=O)c2c1 | 500 (≈ 685 µM) | 500 (≈ 685 µM) | 100 (≈ 137 µM) | 50 (≈ 68.5 µM) | 500 (≈ 685 µM) | 100 (≈ 137 µM) | 100 (≈ 137 µM)
9 | O=c1c2ccccc2nc(-c2ccccc2Cl)n1CCc1ccc2nc(-c3ccccc3Cl)n(-c3ccccc3Cl)c(=O)c2c1 | 500 (≈ 769 µM) | 500 (≈ 769 µM) | 100 (≈ 154 µM) | 50 (≈ 76.9 µM) | 500 (≈ 769 µM) | 100 (≈ 154 µM) | 200 (≈ 308 µM)
10 | Cc1cccc(-n2c(-c3ccccc3Cl)nc3ccc(CCn4c(-c5ccccc5Cl)nc5ccccc5c4=O)cc3c2=O)c1C | 50 (≈ 77.7 µM) | 100 (≈ 155 µM) | 500 (≈ 777 µM) | 100 (≈ 155 µM) | 500 (≈ 777 µM) | 500 (≈ 777 µM) | 500 (≈ 777 µM)
11 | Cc1ccc(-n2c(-c3ccccc3Cl)nc3ccc(CCn4c(-c5ccccc5Cl)nc5ccccc5c4=O)cc3c2=O)c(C)c1 | 50 (≈ 77.7 µM) | 100 (≈ 155 µM) | 500 (≈ 777 µM) | 50 (≈ 77.7 µM) | 100 (≈ 155 µM) | 500 (≈ 777 µM) | 50 (≈ 77.7 µM)
12 | O=c1c2ccccc2nc(-c2ccccc2Cl)n1CCc1ccc2nc(-c3ccccc3Cl)n(-c3ccc(Br)cc3)c(=O)c2c1 | 200 (≈ 288 µM) | 200 (≈ 288 µM) | 1000 (≈ 1440 µM) | 500 (≈ 720 µM) | 1000 (≈ 1440 µM) | 500 (≈ 720 µM) | 500 (≈ 720 µM)
13 | CC1(C)S[C@@H]2[C@H](NC(=O)[C@H](N)c3ccccc3)C(=O)N2[C@H]1C(=O)O [AMPICILLIN] | 100 (≈ 286 µM) | 100 (≈ 286 µM) |  | 100 (≈ 286 µM) |  |  | 250 (≈ 715 µM)
14 | COC1=CC(=O)C[C@@H](C)[C@]12Oc1c(Cl)c(OC)cc(OC)c1C2=O [GRISEOFULVIN] |  |  | 100 (≈ 283 µM) |  | 500 (≈ 1420 µM) | 100 (≈ 283 µM) | 
